Experimental data as given in patent US6368580B1, “Composition suitable as food integrator and for the treatment of intestinal disorders and alterations of the bacterial flora” (Giuliani S.p.A, priority 1999, dated 2002).
“Also recorded” adds a separate entry of the source.

Legend:
Bacillus coagulans [1] = experiment: Growth of Bacillus coagulans in Sabouraud's broth with added nutrient, optical density by biophotometer; type: cell-based; conditions: for increase in growth of Bacillus coagulans (optical density A630), preliminary evaluations of amino acids: aspartic acid, proline, lysine, tryptophan compared, biophotometer
Experimental: Consequently, microbiological tests have been conducted by adding a number of amino acids (particularly aspartic acid, lysine, proline) to the culture medium specific for Lactobacillus. […] Evaluation of the growth of Bacillus coagulans was performed using and agar/Sabouraud's broth to which 0.5% of yeast extract was added. At this point, an attempt was made to determine which of the various amino acid components present in the yeast (aspartic acid, proline, lysine, tryptophan), and in what concentrations, were able to favor more vigorous development of the microorganism. The increase in growth was evaluated by biophotometer which recorded the optical density (A630).
In special sterilized cuvettes for biophotometry, broth cultures were prepared, with the addition to the base culture medium (10 ml of Sabouraud's broth) of: […]
One cuvette containing Sabouraud's broth alone was used as control. Each of the four broth cultures was subsequently inoculated with 100 μl of a dilution of a broth culture (overnight incubation) of Bacillus coagulans made starting from the lyophilized powder (final concentration of 10^4 cfu/ml).
The growth of the culture was evaluated in terms of optical density, using a biophotometer, which is capable of determining the degree of development on the basis of the increase in turbidity. The curvettes thus prepared were set inside the compartment of the instrument in the presence of a magnetic stirrer that was able to keep the culture in uniform suspension, a condition which enables a proper reading of the turbidity of the culture medium to be made.
The optical density appears on the ordinate, the values proportional to the number of bacteria produced. The time is given on the abscissa. The four curves shown on the graph identify the behavior, respectively, of lysine (at a concentration of 0.025 mg/ml), yeast (5 mg/ml), proline (0.01 mg/ml), and the Sabouraud's culture medium reference standard.

Bacillus coagulans [2] = experiment: Lactic acid (L+) production in Bacillus coagulans broth culture; type: cell-based; conditions: 24-hour broth culture to which lysine was added; higher than blank controls or other amino acids

Row | SMILES | increase in growth of Bacillus coagulans (optical density A630), preliminary evaluations of amino acids (Bacillus coagulans [1]) | growth of the Lactobacillus cells and formation of lactic acid (L+) (Bacillus coagulans [1]; amino acid added to the culture medium, lysine at concentrations of the order of 0.1-1 mg/ml) | growth of Bacillus coagulans (optical density, growth curve) (Bacillus coagulans [1]; lysine 0.025 mg/ml in Sabouraud's broth, overnight incubation at 37° C., compared with proline 0.01 mg/ml, yeast 5 mg/ml, broth alone) | lactic acid (L+) production (Bacillus coagulans [2])
1 | O=C(O)[C@@H]1CCCN1 [proline, reference compound] | best results | – | – | –
2 | NCCCC[C@H](N)C(=O)O [lysine] | best results | enhanced the growth of the Lactobacillus cells and the formation of lactic acid (L^+) | most effective nutrient; also recorded: significantly increases the growth curve, reducing the latency phase and increasing the number of cells | 486 mg/L
